{"source": "ChEMBL document CHEMBL5584321", "about": "“Chemoenzymatic Synthesis of DNP-Functionalized FGFR1-Binding Peptides as Novel Peptidomimetic Immunotherapeutics for Treating Lung Cancer” (J Med Chem, 2024)", "key": {"L6 [1]": {"test_system": "L6", "experiment": "Binding affinity to human full-length wild type FGFR1c stably expressed in rat L6 cells assessed as fluorescence intensity at 10 uM by antibody recruiting based flow cytometry", "format": "cell-based"}, "L6 [2]": {"test_system": "L6", "experiment": "Binding affinity to human full-length wild type FGFR1c stably expressed in rat L6 cells assessed as increase in fluorescence signal by antibody recruiting based flow cytometry", "format": "cell-based"}, "NCI-H1581 [3]": {"test_system": "NCI-H1581", "experiment": "Binding affinity to FGFR1c in human NCI-H1581 cells assessed as fold change in fluorescence intensity at 10 uM by antibody recruiting based flow cytometry relative to Pep1", "format": "cell-based"}, "[4]": {"experiment": "AUC in immunized Sprague-Dawley rat at 1.5 mg/kg,SC administration measured upto 24 hrs by fluorescence based microplate reader assay", "format": "ADME, organism-based", "conditions": "in vivo"}, "[5]": {"experiment": "Toxicity in BALB/c mouse xenografted with human NCI-H1581 cells assessed as change in spleen weight at 20 mg/kg,SC administrated once daily for 12 days", "format": "organism-based", "conditions": "in vivo, 288 h, time 12 day"}, "L6 [6]": {"test_system": "L6", "experiment": "Induction of apoptosis in FGF2-induced rat L6 cells stably expressing human full-length FGFR1c assessed as upregulation of cleaved caspase-3 expression at 50 uM incubated for 24 hrs by Western blotting analysis", "format": "functional, cell-based"}, "NCI-H1581 [7]": {"test_system": "NCI-H1581", "experiment": "Binding affinity to FGFR1c in human NCI-H1581 cells assessed as increase in fluorescence signal by antibody recruiting based flow cytometry", "format": "cell-based"}, "[8]": {"experiment": "Half life in immunized Sprague-Dawley rat at 1.5 mg/kg,SC administration measured upto 24 hrs by fluorescence based microplate reader assay", "format": "ADME, organism-based", "conditions": "in vivo"}, "L6 [9]": {"test_system": "L6", "experiment": "Antiproliferative activity against FGF2-induced rat L6 cells stably expressing human full-length FGFR1c assessed as inhibition of cell growth incubated for 36 hrs by CCK-8 assay", "format": "functional, cell-based"}, "[10]": {"experiment": "Toxicity in BALB/c mouse xenografted with human NCI-H1581 cells assessed as change in lung weight at 20 mg/kg,SC administrated once daily for 12 days", "format": "organism-based", "conditions": "in vivo, 288 h, time 12 day"}, "[11]": {"experiment": "Toxicity in BALB/c mouse xenografted with human NCI-H1581 cells assessed as change in body weight at 20 mg/kg,SC administrated once daily for 12 days", "format": "organism-based", "conditions": "in vivo, 288 h, time 12 day"}}, "note": "Active and inactive are the calls of the source. No cut-off for these calls is given here. Where a SMILES comes first, the peptide text is derived from it. The star is where a group is joined. X1 = O=[N+]([O-])c1ccc(OCCOCCOCCOCCOCCOCCN*)c([N+](=O)[O-])c1", "data": [{"smiles": "CC(C)C[C@H](NC(=O)[C@H](C)NC(=O)[C@@H](NC(=O)[C@H](Cc1ccc(O)cc1)NC(=O)[C@H](Cc1c[nH]c2ccccc12)NC(=O)[C@H](CO)NC(=O)[C@H](CO)NC(=O)[C@H](Cc1ccc(O)cc1)NC(=O)[C@H](CCCCN)NC(=O)[C@H](CCCNC(=N)N)NC(=O)[C@H](CO)NC(=O)[C@H](CCCNC(=N)N)NC(=O)[C@@H](N)Cc1ccc(O)cc1)C(C)C)C(=O)N[C@@H](CCCCN)C(=O)N[C@@H](CCCNC(=N)N)C(=O)N[C@@H](CC(C)C)C(=O)N1CCC[C@H]1C(=O)N[C@@H](CCC(=O)O)C(=O)N[C@H](C(=O)NCC(=O)NCC(=O)NCC(=O)NCCOCCOCCOCCOCCOCCOc1ccc([N+](=O)[O-])cc1[N+](=O)[O-])[C@@H](C)O", "note": "(H-YRSRKYSSWYVALKRLPETGGG-X1)", "values": [{"measurement": "Flu intensity", "setting": "L6 [1]", "result": "1.8 10^4No_unit"}, {"measurement": "Activity", "setting": "L6 [2]", "result": "Dose-Dependent Effect"}, {"measurement": "fold change (FC)", "setting": "NCI-H1581 [3]", "result": 36}, {"measurement": "AUC at 24 h", "setting": "[4]", "result": 2600, "unit": "ng·h/mL"}, {"measurement": "Activity", "setting": "[5]", "result": "Non-Toxic"}, {"measurement": "Activity", "setting": "L6 [6]", "result": "Active"}, {"measurement": "Activity", "setting": "NCI-H1581 [7]", "result": "Dose-Dependent Effect"}, {"measurement": "half-life", "setting": "[8]", "result": 18.1, "unit": "h"}, {"measurement": "Activity", "setting": "L6 [9]", "result": "Dose-Dependent Effect"}, {"measurement": "Activity", "setting": "[10]", "result": "Non-Toxic"}, {"measurement": "Activity", "setting": "[11]", "result": "Non-Toxic"}]}]}
